{"source": "patent US20230287068A1", "about": "“KERATIN BD-6, PREPARATION METHOD THEREFOR AND PHARMACEUTICAL COMPOSITION AND USE THEREOF” (INSTITUTE OF MATERIAL MEDICA, CHINESE ACADEMY OF MEDICAL …, priority 2019, published 2023)", "key": {"[1]": {"system": "mice cough induced by ammonia water", "assay": "Antitussive test, cough induced by ammonia water in mice", "type": "in vivo, ICR mice", "procedure": "• Animals: male ICR mice; • Drugs and reagents: dextromethorphan hydrobromide, ammonia water, 0.2% CMC-Na, protein BD-6; • Apparatus: Compressed nebulizer (403T type), balance (XS105DU type). • Experiment grouping: • Solvent control group; • Dextromethorphan 15 mg/kg group; • Protein BD-6, 20 mg/kg group, 50 mg/kg group.\nDextromethorphan and different doses of protein BD-6 (administration volume 10 ml/kg) were given orally in groups, and the solvent control group was given the same volume of distilled water. One hour later, mice were put into a sealed box and atomized 10% ammonia water for 10 seconds, and then observed and recorded the incubation period of cough in mice and the number of coughs in 2 minutes.\nRecord the time point of oral administration, the time point of atomization experiment, the incubation period of mice cough and the number of coughs within 2 minutes, respectively. The incubation period of cough refers to the number of seconds from the start of the atomization of ammonia to the occurrence of cough. The performance of coughing in mice is based on contraction of their abdominal muscles (breast contraction) and opening their mouths at the same time. Calculate the mean and standard error of each group of data, and use TTEST to compare the model group with other groups, and P<0.05 is considered as a significant difference."}, "[2]": {"system": "PLO-induced epilepsy in mice", "assay": "Pilocarpine (PLO) induced convulsive epilepsy in mice", "type": "in vivo, ICR mice", "set-up": "mortality rate: unit not given here", "settings": "Diazepam 2 mg/kg, PLO 225 mg/kg i.p.", "procedure": "• Animals: male ICR mice; • Drugs: Pilocarpine HCl (PLO, pilocarpine, pilocarpine hydrochloride), Diazepam (diazepam tablets), protein BD-6. • Experiment grouping: • Model group: • Diazepam 2 mg/kg group; • Protein BD-6, 50 mg/kg group, 200 mg/kg group.\nThe drug was administered once in the afternoon the day before modeling, PLO-225 mg/kg (modeling agent) was injected intraperitoneally 1 hour after the test drug was administered intragastrically on the day of modeling. And positive drug can be administered once 20 minutes before modeling. Observe for 30 minutes after PLO injection.\nObservation indicators: ①Seizure situation: the time of seizures from Grade II to Grade IV; ②the time to death.\n(§1) Seizure grade: Refer to Racine grading standard: Grade 0: No response; Grade I: manifested as twitching of facial muscles or the corners of the mouth; Grade II: can nod; Grade III: twitching of one limb; Grade IV: rigidity or body twitching; Grade V: generalized epilepsy (generalized tonic seizures).\nCount the number of Grade IV seizures and deaths in each group of mice in the experiment; Grade II, III and IV incubation period. […] Chi-square test was used for statistics of the number of cases. The mean value and standard error of the incubation period were calculated, and TTEST was used to compare the model group with other groups. P<0.05 was considered as a significant difference."}, "[3]": {"system": "PTZ-induced epilepsy in mice", "assay": "Pentylenetetrazole (PTZ) induced epilepsy in mice", "type": "in vivo, ICR mice", "settings": "Retigabine 60 mg/kg, PTZ 65 mg/kg i.p.", "procedure": "• Animals: male ICR mice; • Medicines: Pentylenetetrazol (PTZ), Retigabine, Protein BD-6. • Experiment grouping: • Model group; • Retigabine 60 mg/kg group; • Protein BD-6, 50 mg/kg group, 200 mg/kg group;\nThe drug was administered once in the afternoon the day before modeling, On the day of modeling, PTZ-65 mg/kg (modeling agent) was injected intraperitoneal 1 hour after the test drug was administered intragastrically, and the positive drug can be administered once half an hour before modeling. Continue to observe for 15 minutes after injection of PTZ.\nObservation index: ①Seizure situation: the time of seizures from Grade III to Grade VI; ②Death situation\nas §1\nCount the cases of seizures and deaths in each group of mice in the experiment; Grade III and IV incubation period. The incubation period of mice that have not attacked to Grade IV is recorded as the maximum of 900 seconds. Chi-square test was used for statistics of the number of cases. Calculate the mean and standard error of the incubation period. Use TTEST to compare the model group with other groups, and P<0.05 is considered as a significant difference."}, "[4]": {"system": "lipopolysaccharide (LPS) induced fever model in rats", "assay": "Lipopolysaccharide (LPS) induced fever model in SD rats", "type": "in vivo", "procedure": "• Animals: 230-260 grams of male SD rats; • Drugs: lipopolysaccharide (LPS, SIGMAL-2880), aspirin (SIGMAA2093), protein BD-6; • Instruments: electronic balance (SARTORIUS BP121S type), electronic clinical thermometer (CITIZEN CT-513W type). • Experiment grouping: • Normal control group; • Model group: lipopolysaccharide fever model; • Positive control group: Aspirin 300 mg/kg group; • Protein BD-6, 10 mg/kg group, 50 mg/kg group.\nMethod: the method of intraperitoneal injection of Lipopolysaccharide to replicate rat fever model.\n(§2) Preparation of experimental animals: After the experimental animals adapt to the experimental environment (temperature 22° C.±2° C., relative humidity 50%±2%) for 1 day. Pre-adaptation to measure rectal temperature at 8:00 and 15:00, rats were fasted and water was taken freely 12 h before experiment, and let the animal to empty its feces before measuring the rectal temperature. Apply petroleum jelly to the electronic thermometer probe before each temperature measurement. Insert the rat rectum 2 cm (can be marked at 2 cm to ensure that the depth of each insertion is consistent), and record the body temperature after the reading is stable.\nIntraperitoneal injection of lipopolysaccharide to replicate rat fever model: The body temperature of the rats was measured before modeling. Qualified rats with a body temperature of 36.2-37.3° C. were selected and randomly divided into groups with 8 rats in each group. After oral administration of aspirin and different doses of protein BD-6, lipopolysaccharide (20 µg/kg, 2 ml/kg) was injected intraperitoneally immediately, and the normal control group was injected intraperitoneally with an equal volume of normal saline. The body temperatures of the rats were monitored after 2 hours for a total of 8 hours.\n(§3) According to the body temperature measured at each time point on the day of the experiment, calculate the mean, standard deviation and standard error of the body temperature of each group of rats. The data of each group was compared with TTEST, and P<0.05 was considered as a significant difference."}, "[5]": {"system": "acetic acid writhing of ICR mice", "assay": "Acetic acid writhing test in ICR mice", "type": "in vivo", "procedure": "• Animals: male ICR mice; • Drugs and reagents: aspirin, physiological saline, glacial acetic acid, protein BD-6. • Experiment grouping: • Model group; • Aspirin 300 mg/kg group; • Protein BD-6, 50 mg/kg group, 200 mg/kg group.\nOne day after the experimental animals adapt to the environment, Aspirin 300 mg/kg, protein BD-6 50 mg/kg, 200 mg/kg were given orally one hour in advance, and the administration volume was 10 ml/kg; Then, 0.6% acetic acid solution was injected intraperitoneally, and the incubation period (seconds) and frequency of writhing in the animal was observed within 15 minutes.\nCalculate the mean and standard error of the data in each group. Compared with the model group by TTEST, P<0.05 was considered as statistically different."}, "[6]": {"system": "yeast-induced fever model in rats", "assay": "Yeast-induced fever model in SD rats", "type": "in vivo", "procedure": "• Medicines: yeast (OXOID LP0021), aspirin (SIGMA A2093), protein BD-6; • Instruments: electronic balance (SARTORIUS BP121S type), electronic clinical thermometer (CITIZEN CT-513W type). • Experiment grouping: • Normal control group; • Model group: yeast fever model; • Positive control group: Aspirin 300 mg/kg group; • Protein BD-6, 10 mg/kg group, 50 mg/kg group.\nas §2\nSubcutaneous injection of dry yeast to replicate rat fever model: The body temperature of the rats was measured before modeling. Qualified rats with a body temperature of 36.2-37.3° C. were selected and randomly divided into groups with 8 rats in each group. After oral administration of aspirin and different doses of protein BD-6, 20% yeast suspension (10 ml/kg) was injected subcutaneously immediately, and the normal control group was injected intraperitoneally with an equal volume of normal saline. The body temperatures of the rats were monitored after 2 hours for a total of 8 hours.\nas §3"}, "[7]": {"settings": "aspirin 300 mg/kg oral, LPS 20 µg/kg i.p., SD rats"}, "[8]": {"settings": "aspirin 300 mg/kg oral, 0.6% acetic acid i.p., within 15 minutes"}, "[9]": {"settings": "aspirin 300 mg/kg oral, 20% yeast s.c., SD rats"}}, "note": "Where a name gives a salt, the structure may show the parent alone. Marks after values point to notes of the source that are not given here.", "data": [{"smiles": "COc1ccc2c(c1)[C@]13CCCC[C@@H]1[C@H](C2)N(C)CC3", "note": "[Dextromethorphan, dextromethorphan hydrobromide, reference compound]", "values": [{"measurement": "Incubation period (cough)", "setting": "[1]; Dextromethorphan 15 mg/kg oral, 10% ammonia water 10 seconds, X±SEM", "result": "37.3 ± 2.4", "unit": "s"}, {"measurement": "Number of coughs", "setting": "[1]; Dextromethorphan 15 mg/kg oral, within 2 minutes, X±SEM", "result": "30.2±2.0^∗∗"}, {"measurement": "Incubation period and number of coughs vs solvent control (in words)", "setting": "[1]; dextromethorphan 15 mg/kg, P<0.05", "result": "significant improvement in the incubation period and the number of coughs"}]}, {"smiles": "CN1C(=O)CN=C(c2ccccc2)c2cc(Cl)ccc21", "note": "[Diazepam, reference compound]", "values": [{"measurement": "Cases of deaths", "setting": "[2]; 10 mice", "result": 0}, {"measurement": "Grade IV seizure rate", "setting": "[2]; 10 mice", "result": "0** %"}, {"measurement": "mortality rate", "setting": "[2]; 10 mice", "result": 0}, {"measurement": "Cases of Grade IV", "setting": "[2]; 10 mice, 30 min observation", "result": "0**"}, {"measurement": "Grade II seizure incubation period", "setting": "[2]; mean±SEM", "result": "151±6^∗∗ s"}, {"measurement": "Grade III seizure incubation period", "setting": "[2]; mean±SEM", "result": "275±20^∗∗ s"}, {"measurement": "Grade IV seizure incubation period", "setting": "[2]; mean±SEM, maximum 1800 seconds", "result": "1800±0^∗∗ s"}]}, {"smiles": "CCOC(=O)Nc1ccc(NCc2ccc(F)cc2)cc1N", "note": "[Retigabine, reference compound]", "values": [{"measurement": "Cases of deaths", "setting": "[3]; 10 mice", "result": 0}, {"measurement": "Grade IV seizure rate", "setting": "[3]; 10 mice", "result": 40, "unit": "%*"}, {"measurement": "mortality rate", "setting": "[3]; 10 mice", "result": 0, "unit": "%"}, {"measurement": "Cases of Grade IV", "setting": "[3]; 10 mice, 15 min observation", "result": "4*"}, {"measurement": "Grade III seizure incubation period", "setting": "[3]; mean±SEM", "result": "104±13^∗∗ s"}, {"measurement": "Grade IV seizure incubation period", "setting": "[3]; mean±SEM, maximum 900 seconds", "result": "634±109^∗∗ s"}]}, {"smiles": "CC(=O)Oc1ccccc1C(=O)O", "note": "[aspirin, reference compound]", "values": [{"measurement": "Body temperature 2 hours after modeling", "setting": "[4]; [7]", "result": "36.7±0.1", "unit": "°C"}, {"measurement": "Body temperature 4 hours after modeling", "setting": "[4]; [7]", "result": "36.7±0.1", "unit": "°C"}, {"measurement": "Body temperature 6 hours after modeling", "setting": "[4]; [7]", "result": "36.6±0.1", "unit": "°C"}, {"measurement": "Body temperature 8 hours after modeling", "setting": "[4]; [7]", "result": "36.6±0.1", "unit": "°C"}, {"measurement": "Effect on increase in body temperature (in words)", "setting": "[4]; aspirin 300 mg/kg, 2, 4, 6 and 8 hours after modeling, P<0.05 vs model group", "result": "can effectively inhibit the increase in body temperature of model rats"}, {"measurement": "Writhing incubation period and times of writhing vs model group (in words)", "setting": "[5]; Aspirin 300 mg/kg, P<0.05", "result": "can significantly delay the incubation period of writhing and reduce the times of writhing"}, {"measurement": "Frequency of writhing", "setting": "[5]; [8]", "result": "14.8±3.3^∗∗ times"}, {"measurement": "Writhing incubation period", "setting": "[5]; [8]", "result": "281.6±26.0^∗∗ seconds"}, {"measurement": "Body temperature 2 hours after modeling", "setting": "[6]; [9]", "result": "37.1±0.1", "unit": "°C"}, {"measurement": "Body temperature 4 hours after modeling", "setting": "[6]; [9]", "result": "37.0±0.1", "unit": "°C"}, {"measurement": "Body temperature 6 hours after modeling", "setting": "[6]; [9]", "result": "37.1±0.1", "unit": "°C"}, {"measurement": "Body temperature 8 hours after modeling", "setting": "[6]; [9]", "result": "37.1±0.1", "unit": "°C"}, {"measurement": "Effect on increase in body temperature (in words)", "setting": "[6]; aspirin 300 mg/kg, 4, 6 and 8 hours after modeling, P<0.05 vs model group", "result": "can effectively inhibit the increase in body temperature of model rats"}]}]}
